Assay results reported in PubChem BioAssay AID2060618 (Molecular Pharmacology Branch, DTP, NCI, 2025).

Tested on: 454973-116-R2-J3-PDC spheroids, percent test/control viability
Assay: Anticancer human tumor 454973-116-R2-J3-PDC patient-derived pancreatic carcinoma cell line growth inhibition [CLK]
Details: spheroids with HUVEC and MSC; for IC50: curve of first compound; for viability, T/C: stronger effect = lower value
How it was run: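 Multi-cell-type spheroids combined patient-derived tumor cells with HUVEC endothelial cells and human mesenchymal stem cells. Paired agents were dosed in half-log steps down from about clinical Cmax, or from 10 microM where Cmax was unknown.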
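Also: spheroids exposed to compounds for 7 days before readout.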

O=C(c1cc(Cc2n[nH]c(=O)c3ccccc23)ccc1F)N1CCN(C(=O)C2CC2)CC1 + CN1CCN(c2cc(C(=O)Nc3cc4cc(-c5cnn(C)c5)ccc4cn3)ccn2)CC1
IC50 (second compound 0.0316 µM): > 10000 nM | IC50 (second compound 0.1 µM): 5860 nM | IC50 (second compound 0.316 µM): < 31.6 nM | IC50 (second compound 1 µM): < 31.6 nM | IC50 (second compound 3.16 µM): < 31.6 nM | IC50 (second compound 10 µM): < 31.6 nM | viability, T/C (second compound 0.0316 µM, first compound 0.0316 µM): 99% | viability, T/C (second compound 0.0316 µM, first compound 0.1 µM): 99.5% | viability, T/C (second compound 0.0316 µM, first compound 0.316 µM): 101% | viability, T/C (second compound 0.0316 µM, first compound 1 µM): 115% | viability, T/C (second compound 0.0316 µM, first compound 3.16 µM): 94.7% | viability, T/C (second compound 0.0316 µM, first compound 10 µM): 71.8% | viability, T/C (second compound 0.1 µM, first compound 0.0316 µM): 75.8% | viability, T/C (second compound 0.1 µM, first compound 0.1 µM): 77% | viability, T/C (second compound 0.1 µM, first compound 0.316 µM): 73.5% | viability, T/C (second compound 0.1 µM, first compound 1 µM): 75.7% | viability, T/C (second compound 0.1 µM, first compound 3.16 µM): 62.5% | viability, T/C (second compound 0.1 µM, first compound 10 µM): 38% | viability, T/C (second compound 0.316 µM, first compound 0.0316 µM): 1.44% | viability, T/C (second compound 0.316 µM, first compound 0.1 µM): 2.27% | viability, T/C (second compound 0.316 µM, first compound 0.316 µM): 1.78% | viability, T/C (second compound 0.316 µM, first compound 1 µM): 1.98% | viability, T/C (second compound 0.316 µM, first compound 3.16 µM): 2.16% | viability, T/C (second compound 0.316 µM, first compound 10 µM): 2.03% | viability, T/C (second compound 1 µM, first compound 0.0316 µM): 0.12% | viability, T/C (second compound 1 µM, first compound 0.1 µM): 0.14% | viability, T/C (second compound 1 µM, first compound 0.316 µM): 1.94% | viability, T/C (second compound 1 µM, first compound 1 µM): 0.08% | viability, T/C (second compound 1 µM, first compound 3.16 µM): 0.83% | viability, T/C (second compound 1 µM, first compound 10 µM): 0.08% | viability, T/C (second compound 3.16 µM, first compound 0.0316 µM): 0.13% | viability, T/C (second compound 3.16 µM, first compound 0.1 µM): 0.21% | viability, T/C (second compound 3.16 µM, first compound 0.316 µM): 0.33% | viability, T/C (second compound 3.16 µM, first compound 1 µM): 0.13% | viability, T/C (second compound 3.16 µM, first compound 3.16 µM): 0.29% | viability, T/C (second compound 3.16 µM, first compound 10 µM): 0.27% | viability, T/C (second compound 10 µM, first compound 0.0316 µM): 1.42% | viability, T/C (second compound 10 µM, first compound 0.1 µM): 0.14% | viability, T/C (second compound 10 µM, first compound 0.316 µM): 0.17% | viability, T/C (second compound 10 µM, first compound 1 µM): 0.13% | viability, T/C (second compound 10 µM, first compound 3.16 µM): 0.39% | viability, T/C (second compound 10 µM, first compound 10 µM): 0.22%
